Laboratory results published in publication PMC5641347, “Aii810, a Novel Cold-Adapted N-Acylhomoserine Lactonase Discovered in a Metagenome, Can Strongly Attenuate Pseudomonas aeruginosa Virulence Factors and Biofilm Formation” (Frontiers in Microbiology, 2017).

Test system: T1, Aii810
T1 construct: E. coli BL21(DE3), Ni-NTA
Assay: p-nitrophenol release at […] nm, Michaelis-Menten fit
Assay type: biochemical, uncultured bacterium
Details: 20°C, pH 6.5

CC(=O)Oc1ccc([N+](=O)[O-])cc1 [C2, ρ-nitrophenyl acetate]
Km: 205 µM
